These results are taken from patent publication US9376700B2, “Methods of modifying N-termini of a peptide or protein using transferases” (The Trustees of the University of Pennsylvania, priority 2012, dated 2016).

For data set [1], the target named is T1, E. coli aminoacyl transferase (AaT) (Escherichia coli, UniProt P0A8P1). The experiment in a line: A/AMP/ATP/pdCpA inhibition studies of ligation with Phe donor 4a. It is filed as biochemical. Also on record: made in house; host or cells: E. coli BL21-Gold (DE3), plasmid pEG6, Ni-NTA purified. How it is done: Each ligation reaction was performed as described elsewhere herein.
T1 sequence (P0A8P1 whole entry): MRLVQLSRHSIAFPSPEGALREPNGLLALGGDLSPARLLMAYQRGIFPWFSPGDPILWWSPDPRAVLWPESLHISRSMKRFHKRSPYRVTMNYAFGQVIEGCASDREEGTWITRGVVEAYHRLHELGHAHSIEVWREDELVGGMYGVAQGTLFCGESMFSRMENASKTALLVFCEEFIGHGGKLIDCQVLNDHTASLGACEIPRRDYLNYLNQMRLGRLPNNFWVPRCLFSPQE
To better understand limitations on the yield from AaT reactions, the possibilities of inhibition by hydrolyzed substrate or aminoacylated product were assessed. Since the acyl adenosine donor substrate is not regenerated during the reaction (unlike the aaRS/tRNA/AaT reaction), it was hypothesized that the adenosine byproduct might inhibit further acylation by binding to AaT. To investigate this possibility, adenosine was added to the reaction at varying concentrations and monitored the reaction timecourse by fluorescence spectroscopy and by HPLC.

Data set [2] addresses T1, E. coli aminoacyl transferase (AaT). The experiment in a line: Real time fluorometric monitoring of Nap transfer from 4d to LysAlaAcm. The format is biochemical. More on the design: made in house; host or cells: E. coli BL21-Gold (DE3), plasmid pEG6, Ni-NTA purified. As to conditions: up to 1 mM exogenous adenosine, real time fluorescence. Here is the method:
Real time fluorescent monitoring of Nap addition to LysAlaAcm was carried out using reaction solutions prepared on the 500 μL scale in stirred quartz cuvettes with 1.00 cm path lengths. Reagent concentrations were as described elsewhere herein, except that donor 4d was withheld until the cuvette was placed in the fluorometer and temperature equilibrated. Reactions were then initiated by addition of 20 μL of 25 mM Nap-A (4d) stock or water (for negative controls). Fluorescence emission at 390 nm was monitored after excitation at 325 nm. Prior calibration had shown that NapLysAlaAcm (5d) concentrations could be estimated from fluorescence intensity readings (F5d) using the equation [5d]=(1−(F5d/FControl))1.39[LysAlaAcm], where fControl is the fluorescence reading of the reaction with water added instead of 4d. […]
In order to monitor conversion of LysAlaAcm to NapLysAlaAcm (5d) in real time, a fluorometric assay was designed based on intramolecular quenching of aminocoumarin fluorescence by the naphthyl ring. Equimolar solutions of LysAlaAcm and NapLysAlaAcm, as well as mixtures of the two solutions, were prepared and their fluorescence was compared as depicted in FIG. 18A. […]
The present experiment was also achieved to monitor product formation in real time based on partial quenching of coumarin fluorescence upon addition of Nap to the LysAlaAcm peptide to form 5d. […]

A short description of data set [3]: HPLC analysis of donor hydrolysis in mock LysAlaAcm reactions without enzyme. As to conditions: mock reaction without AaT, AaT Ligation Buffer pH 8.0, 37° C., after 4 h. It is filed as physicochemical. How it is done: The amino acid analog donor (4a-4z) was suspected to be hydrolytically unstable and was tested in mock LysAlaAcm reactions without enzyme present and then analyzed by HPLC. The mock LysAlaAcm reactions were performed as described in the LysAlaAcm Ligation Assay section; however, the AaT solution was replaced with water. Phe-A solutions were analyzed at 30 min, 1 h, and 4 h. Immediately following the reaction, the sample was diluted to 1,200 μL and injected onto the C18 HPLC column using Gradient 1. […] Additionally, 1 mM A and 1 mM Phe were injected on the HPLC to serve as standards to verify retention times. Note that the relative concentrations of 2′ and 3′ Phe-A would be different in an actual reaction where the 3′ Phe-A is preferentially consumed by AaT in the transfer reaction (Watanabe et al., 2007, Nature 449:867-871). The change in 2′:3′ ratio between 0 h and 30 min probably reflected the higher pH of the 30 min data (Taiji et al., 1983, Biochemistry 22:3220-3225).

Data set [4] addresses T2, E. coli aminoacyl tRNA transferase (AaT) (Escherichia coli, UniProt P0A8P1).
T2 construct: made in house; host or cells: E. coli BL21-Gold (DE3), plasmid pEG6, Ni-NTA purified
The experiment in a line: AaT-catalyzed α-casein N-terminal modification (Edman degradation, tryptic digest MALDI MS). It is filed as biochemical. As to conditions: Phe donor, additional dose at 4 h, overnight. How it is done:
HEPES pH 8.0, 1.50 mM KO, 10 mM MgCl2) and AaT (0.05 mg). The reaction mixture was incubated at 37° C. for 12 h, AaT was removed using Ni^2+ resin (Ni-NTA Superflow, Qiagen), and then buffer exchanged four times into phosphate buffered saline (PBS, 12 mM NaH2PO4, 50 mM NaCl, 4.7 mM KCl, pH 8.0) by Spectra/Por 1 dialysis tubing (Spectrum Laboratories; Rancho Dominguez, Calif.). Azf-modified α-casein was used directly after buffer exchange into PBS. Aliquots (1 nmol) of α-casein were diluted into PBS (22 μL) containing either fluorescein-alkyne (FlAlk, 91 μM) or propargylamine (Alk, 227 μM) for copper-catalyzed azide-alkyne cycloaddition (CuAAC). […] Reactions were boiled with gel loading dye LDS (Pierce; Rockford, Ill.) for 10 min at 95° C. and analyzed by SDS-PAGE. Fluorescence images were obtained with a Geldoc (BioRAD; Hercules, Calif.) using an excitation wavelength of 302 nm for detection of fluorescein. α-Casein was also directly visualized by Coomassie Brilliant Blue staining.
α-Casein-Azf (33 or α-casein (33 μg) was digested with sequencing grade modified Trypsin (0.6 μg) in 27 μL of 25 mM ammonium bicarbonate pH 7.5 (freshly prepared). Digestions were carried out at 37° C. for 14 h. Trypsin digest aliquots (1 μL) were combined with α-cyano-4-hydroxycinnamic acid (1 μL of a saturated solution in 1:1 H2O/CH3CN with 1% TFA) and analyzed by MALDI MS. […]

The target of data set [5] is T1, E. coli aminoacyl transferase (AaT).
Procedure: The LysAlaAcm ligation assay was used to analyze the kinetics of AaT with substrate 4a. The ligation assay was modified for ease of analysis as follows: The total reaction volume was scaled up to 590 μL and all reagents were maintained at the same concentrations as mentioned above, Five concentrations of 4a were monitored for a total reaction time of 30 min, with concentrations ranging from 0.05 to 1 mM.
Each 30 min kinetic experiment was done in triplicate with a total of fourteen 40 μL aliquots for all substrate concentrations.
Therefore, the reaction was characterized in terms of the Michaelis-Menten kinetic scheme in Equation 2.
To determine initial velocities, the primary kinetic data is fit to the hyperbolic Equation 3, which, though phenomenological, produces a high quality fit (R>0.99 for all 5 data sets). Data from the first two minutes were fit to a linear expression (Equation 4). A non-zero intercept is employed for improved quality of fit; this can be justified in terms of a rapid burst phase not captured in the 1 min resolution of this assay.
The initial velocities were then plotted as a function of Phe-A donor concentration and fit to Equation 5 to obtain kcat and KM values, where KM=(k−1+kcat)/k1 as depicted in FIG. 3B.
To characterize the enzymatic activity of AaT toward the present acyl adenosyl substrates, an HPLC assay was used to determine initial reaction rates to be fit to a standard Michaelis-Menten kinetic model.
Data set [6] shares this target. The data set can be described thus: LysAlaAcm ligation assay: AaT-catalyzed transfer from aminoacyl adenosine donor to LysAlaAcm, HPLC at 325 nm. It is filed as biochemical. More on the design: made in house; host or cells: E. coli BL21-Gold (DE3), plasmid pEG6, Ni-NTA purified. As to conditions: for Ligated Product Yield (%): 4 h. Here is the method:
Each ligation reaction, 125 μL total volume, contained the following reagents: aminoacyl adenosine donor (1 mM), recombinant His10-tagged E. coli aminoacyl transferase (2.26 μM), and LysAlaAcm (100 μM) in the AaT Ligation Buffer (50 mM HEPES pH 8.0, 150 mm KCl, 10 mM MgCl2). The reaction mixtures were incubated at 37° C. for four hours and quenched with 1% acetic acid. The proteins were extracted from the reactions via acetone precipitation. The reactions were precipitated using 4× reaction volume of acetone and cooled at −20° C. for 1 h. Next, the reactions were centrifuged at 13,200 rpm at 4° C. for 20 min to separate the reaction from precipitated protein. The supernatant was transferred to fresh 1.5 mL centrifuge tubes and allowed for acetone evaporation overnight at room temperature. After acetone evaporation, the supernatant was dried in a Speedvac (Savant, Thermo Scientific, Fisher Inc.) for 30 min to remove residual acetone. The resulting reaction volume was dissolved up to 1.2 mL using Milli-Q water and analyzed by HPLC (gradient below) to determine ligation yield by integration of separated peak intensities monitored at 325 nm. Collected HPLC fractions were characterized through MALDI MS analysis. […] Reactions using Phe-pdCpA as donor were carried out in an identical fashion (Ellman, et al., 1991, Methods Enzymol. 202:301-336).
All HPLC analyses of LysAlaAcm ligations were monitored on an Agilent HPLC using a Waters C18 column (Milford, Mass.).
All HPLC analyses of LysAlaAcm ligations were monitored as described elsewhere herein (Gradient 1).
The extent of transfer was evaluated by HPLC analysis of reactions with adenosyl donor, AaT or BpT, and an aminocoumarin-labeled reporter peptide (for AaT, LysAlaAcm was used as previously described by Tirrell and co-workers; for BpT, AspAlaAcm was used in an analogous fashion) (Connor et al., 2008, ChemBioChem 9:366-369). Monitoring LysAlaAcm or AspAlaAcm acylation in crude reaction mixtures using absorbance at 325 nm conveniently eliminates background due to other proteins and nucleic acids, although some non-natural amino acids such as naphthylalanine (Nap) and methoxycoumarinylalanine (Mcm) also absorb in this range.
To evaluate substrate scope, reactions were analyzed after 4 h, when transfer should be complete for the fully enzymatic reaction with Phe tRNA synthetase (Connor et al., 2008, ChemBioChem 9:366-369).

Where [7] appears, read: 100 μM LysAlaAcm, 0.05 to 1 mM donor.

“And” between values parts separate entries of the source, which are not always exact repeats. Equal entries are not always repeated. “Also recorded” adds a separate entry of the source. Where two headings read alike, the source gives them in different places.

T2 sequence (P0A8P1 whole entry): as above

For `Nc1ncnc2c1ncn2[C@@H]1O[C@H](CO)[C@@H](O)[C@H]1O` [adenosine], in data set [1] (5 mM added), the “Inhibition of addition from the Phe donor 4a” value is reported as “not inhibited”. This compound also yielded an inhibitory constant (Ki) in data set [1] (Phe donor 4a transfer reaction) of over 5 mM. The “Inhibition of Nap transfer to LysAlaAcm from 4d” value in data set [2] is on record as “did not significantly inhibit; also recorded: No significant inhibition”.
Turning to `Nc1ncnc2c1ncn2[C@@H]1O[C@H](CO)[C@@H](O)[C@H]1OC(=O)[C@@H](N)Cc1ccccc1` [4a, (S)-(2R,3R,4R,5R)-2-(6-Amino-9H-purin-9-yl)-4-hydroxy-5-(hydroxymethyl)tetrahydrofuran-3-2-amino-3-phenylpropanoate], the Donor hydrolysis entry in data set [3] is given as “completely hydrolyzed”. The “Modification of α-casein N-terminus, Edman degradation” value in data set [4] was “quantitative addition of Phe”. Also, the Km in data set [5] (setting [7]) and in data set [5] (restated in μM) was 124 µM throughout. Besides, the kcat in data set [5] (setting [7]) was 1.68±0.09×10^−1 s^−1. Moreover, the “Transfer to LysAlaAcm by AaT (in words)” value in data set [6] (reactions analyzed after 4 h) was “transferred efficiently”. The “Conversion of LysAlaAcm after a second addition of donor” value in data set [6] (second addition of 1 mM 4a) is reported as “completion”. Besides, the “Ligated Product Yield (%)” value in data set [6] (single addition of 1 mM donor, 100 μM LysAlaAcm, 2.26 μM AaT, 37° C., no additive) is 92% and 92.7 ± 5.2%; in data set [6] (single addition of donor, additive 1 mM pdCpA), 90.4 ± 0.9%.

By Ki is commonly meant a measure of affinity in units of concentration, obtained from inhibition or displacement. One may read the Km as the substrate concentration at which the rate is half of its maximum.
